What was measured:
Type in all cases: binding
[1] = target: T1, kinases (KINOMEscan panel) (Homo sapiens, UniProt P57058); conditions: kinase HUNK; NEW KINOMEscan
T1 sequence (P57058 1-714): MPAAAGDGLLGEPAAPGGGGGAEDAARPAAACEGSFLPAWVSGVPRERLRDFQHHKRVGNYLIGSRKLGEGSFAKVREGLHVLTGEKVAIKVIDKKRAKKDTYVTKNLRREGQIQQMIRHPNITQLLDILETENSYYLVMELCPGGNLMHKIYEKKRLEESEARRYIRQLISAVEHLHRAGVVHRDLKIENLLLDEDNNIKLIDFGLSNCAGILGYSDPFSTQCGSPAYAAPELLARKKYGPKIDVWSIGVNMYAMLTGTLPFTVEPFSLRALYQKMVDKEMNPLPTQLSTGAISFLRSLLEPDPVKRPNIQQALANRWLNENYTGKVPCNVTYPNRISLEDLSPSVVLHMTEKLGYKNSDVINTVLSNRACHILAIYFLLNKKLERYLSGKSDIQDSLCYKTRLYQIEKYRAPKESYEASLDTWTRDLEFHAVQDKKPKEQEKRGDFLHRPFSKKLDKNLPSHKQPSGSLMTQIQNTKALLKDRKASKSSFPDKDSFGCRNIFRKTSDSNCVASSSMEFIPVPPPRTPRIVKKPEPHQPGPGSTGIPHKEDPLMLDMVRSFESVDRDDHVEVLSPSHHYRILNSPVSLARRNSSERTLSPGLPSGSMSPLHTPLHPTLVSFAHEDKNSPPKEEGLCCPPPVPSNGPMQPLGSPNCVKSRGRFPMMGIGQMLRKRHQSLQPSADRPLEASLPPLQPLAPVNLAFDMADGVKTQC

[2] = target: kinases (KINOMEscan panel) (Homo sapiens, UniProt P07332); conditions: kinase FES; NEW KINOMEscan
[3] = target: T2, kinases (KINOMEscan panel) (Homo sapiens, UniProt Q8NFD2); conditions: ANKK1; NEW KINOMEscan
T2 sequence (Q8NFD2 1-765): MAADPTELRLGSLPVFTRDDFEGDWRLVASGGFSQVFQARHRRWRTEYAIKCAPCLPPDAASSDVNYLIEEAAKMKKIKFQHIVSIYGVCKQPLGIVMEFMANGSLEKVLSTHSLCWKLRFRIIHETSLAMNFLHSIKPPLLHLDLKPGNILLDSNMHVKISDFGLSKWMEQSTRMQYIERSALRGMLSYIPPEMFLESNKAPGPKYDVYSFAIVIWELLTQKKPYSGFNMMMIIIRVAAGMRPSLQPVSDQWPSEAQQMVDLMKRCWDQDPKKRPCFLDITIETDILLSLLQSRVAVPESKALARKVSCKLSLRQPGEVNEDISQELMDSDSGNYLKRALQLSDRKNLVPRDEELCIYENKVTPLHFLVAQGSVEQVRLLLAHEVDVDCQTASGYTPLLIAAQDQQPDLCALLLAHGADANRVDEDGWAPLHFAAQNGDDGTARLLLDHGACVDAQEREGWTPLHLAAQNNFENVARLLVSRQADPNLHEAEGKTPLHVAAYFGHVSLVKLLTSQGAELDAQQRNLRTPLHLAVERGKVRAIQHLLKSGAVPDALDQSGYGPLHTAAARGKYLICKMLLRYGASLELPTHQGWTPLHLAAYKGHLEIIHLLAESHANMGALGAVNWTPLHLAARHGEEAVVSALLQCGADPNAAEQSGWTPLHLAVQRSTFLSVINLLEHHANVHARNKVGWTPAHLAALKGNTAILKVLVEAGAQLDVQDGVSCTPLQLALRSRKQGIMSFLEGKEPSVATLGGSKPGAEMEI

[4] = target: kinases (KINOMEscan panel) (Homo sapiens, UniProt Q96J92); conditions: WNK4; NEW KINOMEscan
[5] = target: kinases (KINOMEscan panel) (Homo sapiens, UniProt O75460); conditions: NEW KINOMEscan
[6] = target: T3, kinases (KINOMEscan panel) (Homo sapiens, UniProt Q9C098); conditions: kinase DCLK3; NEW KINOMEscan
T3 sequence (Q9C098 1-648): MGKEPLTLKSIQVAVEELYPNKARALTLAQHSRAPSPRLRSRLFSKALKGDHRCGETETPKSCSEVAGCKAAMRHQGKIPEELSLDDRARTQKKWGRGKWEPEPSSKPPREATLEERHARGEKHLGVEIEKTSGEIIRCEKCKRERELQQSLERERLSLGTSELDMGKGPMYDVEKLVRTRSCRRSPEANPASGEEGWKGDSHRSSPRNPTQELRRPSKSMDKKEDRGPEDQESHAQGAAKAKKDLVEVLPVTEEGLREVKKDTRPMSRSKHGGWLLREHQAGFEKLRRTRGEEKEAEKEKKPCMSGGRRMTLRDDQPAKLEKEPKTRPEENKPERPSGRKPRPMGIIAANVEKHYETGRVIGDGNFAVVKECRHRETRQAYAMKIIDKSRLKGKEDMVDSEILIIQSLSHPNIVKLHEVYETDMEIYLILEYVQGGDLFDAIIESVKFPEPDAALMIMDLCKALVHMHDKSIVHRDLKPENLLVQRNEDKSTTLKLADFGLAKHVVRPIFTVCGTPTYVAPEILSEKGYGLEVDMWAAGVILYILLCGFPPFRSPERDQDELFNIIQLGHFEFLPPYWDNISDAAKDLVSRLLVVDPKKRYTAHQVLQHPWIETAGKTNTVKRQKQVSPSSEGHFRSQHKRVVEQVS

[7] = target: kinases (KINOMEscan panel) (Homo sapiens, UniProt P27448); conditions: MARK3; NEW KINOMEscan
Chain of kinases (KINOMEscan panel) (Homo sapiens, UniProt P27448) (P27448 whole entry): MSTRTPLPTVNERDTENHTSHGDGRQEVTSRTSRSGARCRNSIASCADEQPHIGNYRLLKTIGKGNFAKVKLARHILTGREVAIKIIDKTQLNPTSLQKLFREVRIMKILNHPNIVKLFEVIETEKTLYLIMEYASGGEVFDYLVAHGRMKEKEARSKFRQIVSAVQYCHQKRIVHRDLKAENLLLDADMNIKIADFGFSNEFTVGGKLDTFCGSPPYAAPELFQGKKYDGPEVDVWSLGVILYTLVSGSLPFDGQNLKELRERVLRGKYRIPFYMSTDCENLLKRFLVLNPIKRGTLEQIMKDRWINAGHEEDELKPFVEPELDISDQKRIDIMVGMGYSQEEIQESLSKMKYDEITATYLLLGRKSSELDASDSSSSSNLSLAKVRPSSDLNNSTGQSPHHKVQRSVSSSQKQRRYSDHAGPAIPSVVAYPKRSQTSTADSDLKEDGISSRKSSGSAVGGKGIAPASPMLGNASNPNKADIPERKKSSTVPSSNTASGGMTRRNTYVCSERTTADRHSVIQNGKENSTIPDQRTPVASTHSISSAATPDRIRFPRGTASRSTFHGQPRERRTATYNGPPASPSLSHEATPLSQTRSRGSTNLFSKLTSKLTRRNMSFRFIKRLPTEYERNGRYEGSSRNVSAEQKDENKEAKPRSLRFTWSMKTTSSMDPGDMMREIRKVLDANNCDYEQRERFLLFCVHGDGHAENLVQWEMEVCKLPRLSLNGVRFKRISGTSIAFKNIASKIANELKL

Chain of kinases (KINOMEscan panel) (Homo sapiens, UniProt O75460) (O75460 19-977): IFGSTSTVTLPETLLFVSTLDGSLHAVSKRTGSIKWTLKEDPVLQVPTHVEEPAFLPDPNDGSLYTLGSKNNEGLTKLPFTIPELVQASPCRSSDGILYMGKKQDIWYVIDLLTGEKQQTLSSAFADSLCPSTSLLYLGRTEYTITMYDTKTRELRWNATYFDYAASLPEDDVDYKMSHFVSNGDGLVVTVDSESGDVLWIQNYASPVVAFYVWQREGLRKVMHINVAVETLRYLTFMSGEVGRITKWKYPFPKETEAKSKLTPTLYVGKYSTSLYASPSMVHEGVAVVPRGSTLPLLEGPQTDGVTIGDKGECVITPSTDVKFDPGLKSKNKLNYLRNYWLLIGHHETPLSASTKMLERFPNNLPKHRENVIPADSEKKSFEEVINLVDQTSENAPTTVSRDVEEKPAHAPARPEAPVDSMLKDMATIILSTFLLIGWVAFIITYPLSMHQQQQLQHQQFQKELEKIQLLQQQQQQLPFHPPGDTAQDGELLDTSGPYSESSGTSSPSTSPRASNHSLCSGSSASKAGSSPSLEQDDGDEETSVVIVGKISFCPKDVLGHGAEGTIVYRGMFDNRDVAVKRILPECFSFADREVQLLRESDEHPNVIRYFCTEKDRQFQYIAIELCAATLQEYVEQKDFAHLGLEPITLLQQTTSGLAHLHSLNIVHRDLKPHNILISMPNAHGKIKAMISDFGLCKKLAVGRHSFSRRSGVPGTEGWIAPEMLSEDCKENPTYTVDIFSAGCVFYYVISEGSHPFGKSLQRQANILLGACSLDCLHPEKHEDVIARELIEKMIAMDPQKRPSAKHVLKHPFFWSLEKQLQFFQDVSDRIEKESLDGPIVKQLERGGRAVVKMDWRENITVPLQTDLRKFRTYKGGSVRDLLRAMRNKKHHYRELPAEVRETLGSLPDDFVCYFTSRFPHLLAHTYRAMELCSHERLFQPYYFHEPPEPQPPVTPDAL
Chain of kinases (KINOMEscan panel) (Homo sapiens, UniProt P07332) (P07332 whole entry): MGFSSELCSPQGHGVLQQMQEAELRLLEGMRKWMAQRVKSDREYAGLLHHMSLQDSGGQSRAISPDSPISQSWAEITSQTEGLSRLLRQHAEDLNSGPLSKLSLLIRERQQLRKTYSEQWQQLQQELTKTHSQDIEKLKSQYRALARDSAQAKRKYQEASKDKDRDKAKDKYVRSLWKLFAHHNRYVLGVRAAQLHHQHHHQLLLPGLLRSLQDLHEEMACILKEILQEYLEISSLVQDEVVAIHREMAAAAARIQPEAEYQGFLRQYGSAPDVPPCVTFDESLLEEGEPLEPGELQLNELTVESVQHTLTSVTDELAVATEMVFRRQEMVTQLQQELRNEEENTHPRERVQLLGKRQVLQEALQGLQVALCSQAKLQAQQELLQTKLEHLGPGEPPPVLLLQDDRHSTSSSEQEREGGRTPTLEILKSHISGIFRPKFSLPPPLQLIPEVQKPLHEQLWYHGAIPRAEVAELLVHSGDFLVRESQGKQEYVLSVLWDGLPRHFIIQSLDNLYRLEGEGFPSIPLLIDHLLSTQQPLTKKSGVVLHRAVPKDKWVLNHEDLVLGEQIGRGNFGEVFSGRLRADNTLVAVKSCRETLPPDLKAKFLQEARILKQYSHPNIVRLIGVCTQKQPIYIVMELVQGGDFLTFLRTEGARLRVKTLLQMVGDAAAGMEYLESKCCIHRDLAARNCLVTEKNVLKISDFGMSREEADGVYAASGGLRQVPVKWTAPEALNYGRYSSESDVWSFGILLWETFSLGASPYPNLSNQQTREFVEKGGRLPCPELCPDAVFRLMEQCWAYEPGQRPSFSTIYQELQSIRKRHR
Chain of kinases (KINOMEscan panel) (Homo sapiens, UniProt Q96J92) (Q96J92 whole entry): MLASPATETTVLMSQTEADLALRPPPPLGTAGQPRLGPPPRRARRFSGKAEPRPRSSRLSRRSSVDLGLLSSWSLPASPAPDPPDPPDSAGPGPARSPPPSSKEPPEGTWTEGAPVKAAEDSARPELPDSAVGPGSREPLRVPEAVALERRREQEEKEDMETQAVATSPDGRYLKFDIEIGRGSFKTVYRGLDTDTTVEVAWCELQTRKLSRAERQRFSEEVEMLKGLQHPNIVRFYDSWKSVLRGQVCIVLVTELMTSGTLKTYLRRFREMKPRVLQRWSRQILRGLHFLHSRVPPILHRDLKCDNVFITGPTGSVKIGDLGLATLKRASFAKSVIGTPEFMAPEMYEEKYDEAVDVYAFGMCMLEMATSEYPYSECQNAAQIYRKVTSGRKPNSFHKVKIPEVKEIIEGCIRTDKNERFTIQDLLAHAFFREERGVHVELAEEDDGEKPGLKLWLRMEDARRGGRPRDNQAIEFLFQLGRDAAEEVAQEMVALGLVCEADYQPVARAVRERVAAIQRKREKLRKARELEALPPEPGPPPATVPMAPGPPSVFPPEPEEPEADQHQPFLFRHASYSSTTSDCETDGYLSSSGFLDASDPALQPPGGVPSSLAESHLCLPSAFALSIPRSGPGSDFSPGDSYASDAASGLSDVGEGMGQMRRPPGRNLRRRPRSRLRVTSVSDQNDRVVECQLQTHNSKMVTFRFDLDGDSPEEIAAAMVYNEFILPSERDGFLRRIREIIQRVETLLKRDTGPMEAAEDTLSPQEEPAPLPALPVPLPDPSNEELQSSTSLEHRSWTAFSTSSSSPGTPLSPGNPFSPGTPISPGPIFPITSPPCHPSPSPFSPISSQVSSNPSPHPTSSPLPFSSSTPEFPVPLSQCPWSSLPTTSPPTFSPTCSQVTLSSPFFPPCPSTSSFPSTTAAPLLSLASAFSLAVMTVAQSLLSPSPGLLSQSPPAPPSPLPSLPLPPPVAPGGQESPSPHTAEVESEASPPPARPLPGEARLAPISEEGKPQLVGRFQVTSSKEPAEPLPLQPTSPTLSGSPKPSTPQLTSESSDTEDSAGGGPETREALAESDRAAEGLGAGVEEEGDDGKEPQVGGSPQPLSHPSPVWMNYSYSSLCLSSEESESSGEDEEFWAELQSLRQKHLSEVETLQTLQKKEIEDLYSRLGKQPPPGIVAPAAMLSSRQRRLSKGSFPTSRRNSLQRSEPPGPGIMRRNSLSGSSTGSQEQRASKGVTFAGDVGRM

| Compound | KINOMEscan HUNK [1] | KINOMEscan FES [2] | KINOMEscan ANKK1 [3] | KINOMEscan WNK4 [4] | KINOMEscan ERN1 [5] | KINOMEscan DCLK3 [6] | KINOMEscan MARK3 [7] |
| --- | --- | --- | --- | --- | --- | --- | --- |
| Cc1cccc(-c2nc(Nc3ccc4nn(C)cc4c3)c3ccccc3n2)n1 [NK167] | 0 | 0 | 0 | 0 | 0 | 10 | 0 |
| Cc1cccc(-c2nc(N(C)c3ccc4ncsc4c3)c3ccccc3n2)n1 [NK-161] | 4 | 4 | 0 | 0 | 11 | 14 | 0 |
